Here are results for 1 substance from patent publication US7070807B2, “Branched histidine copolymers and methods for using same” (priority 1999, dated 2006).

Ends that are not written are not given here.

For this assay, the system named is tumor. In words: Intratumoral injection of branched polymer carrier of PCI-Luc, gene expression. Particulars: injected intratumorally. The format is in vivo. From the text: FIG. 20. Comparison of the in vitro and in vivo transfection efficiencies of branched transport polymers having different lysine content. In contrast to in vitro experiments, local injection of a branched polymer with a lower lysine content enhanced transfection. A) In vitro comparison of HH-K4b and HHH-K4b as gene delivery carriers of PCI-Luc.
In place of lysine or other cationic amino acids (e.g., ornithine and arginine), other amino acids may be substituted. The preferred amino acids to be substituted for lysines are hydrophilic amino acids such as asparagine or serine.

For the substance “[K-H-H-H-K-H-H-H-K-H-H-H-K-H-H-H-K]4K3 (KHHHKHHHKHHHKHHHK; also: four copies on branched lysine core (K3)) [HHH-K4b, branched polymer on lysine core]”, the “efficiency as carrier of nucleic acids compared to DOTAP liposomes or HH-K4b carrier” value is reported as “much more efficient as a carrier of nucleic acids”.
